Reference: patent US7459414B2, “Herbicides” (Syngenta Crop Protection, Inc., priority 2002, dated 2008)

Columns and labels:
Format in all cases: in vivo
[1] = system: Avena (Ave); test: Example B4 post-emergence herbicidal action, MERGE oil additive 0.7% (Table B4); set-up: key: 1=total damage; 9=no action; conditions: 500 g of active substance per hectare; applied at 3- to 6-leaf stage; MERGE oil additive 0.7% by weight of the spray mixture; evaluation 3 weeks after application; scale of nine ratings
Procedure: (§1) Monocotyledonous and dicotyledonous weeds are grown in standard soil in plastics pots under greenhouse conditions. The test substances are applied to the test plants at the 3- to 6-leaf stage. The test substances are applied at a rate of application of 500 g of active substance per hectare in the form of an aqueous suspension (prepared from a 25% wettable powder (Example F3, b)) or in the form of an emulsion (prepared from a 25% emulsifiable concentrate (Example F1, c)) (500 liters of water/ha). The evaluation is carried out 3 weeks after application, using a scale of nine ratings (1=total damage, 9=no action). Ratings of from 1 to 4 (especially from 1 to 3) indicate good to very good herbicidal action. Herbicidal Action After the Emergence of the Plants (Post-emergence Action) of Compounds of the Present Invention (for Description See Example B2) Test plants: Avena (Ave), Lolium (Lol), Setaria (Set).

[2] = system: Setaria (Set); test: as above; set-up: key: 1=total damage; 9=no action; conditions: 500 g of active substance per hectare; applied at 3- to 6-leaf stage; MERGE oil additive 0.7% by weight of the spray mixture; evaluation 3 weeks after application; scale of nine ratings
Procedure: as §1

[3] = system: Lolium (Lol); test: as above; set-up: key: 1=total damage; 9=no action; conditions: 500 g of active substance per hectare; applied at 3- to 6-leaf stage; MERGE oil additive 0.7% by weight of the spray mixture; evaluation 3 weeks after application; scale of nine ratings
Procedure: as §1

[4] = system: Alopecurus (Alo); test: Example B1 pre-emergence herbicidal action (comparison test); set-up: key: 1=total damage; 9=no action; conditions: 500 g of active ingredient/ha; 3 weeks after application; scale of nine ratings, 1 to 4 = good to very good action
Procedure: (§2) Monocotyledonous and dicotyledonous weeds are sown in plastics pots in standard soil. Immediately after sowing, the test substances are applied in the form of an aqueous suspension (prepared from a 25% wettable powder (Example F3, b)) or in the form of an emulsion (prepared from a 25% emulsifiable concentrate (Example F1, c)) (500 liters of water/ha). The rate of application is 500 g of active substance/ha. The test plants are then grown in the greenhouse under optimum conditions. The evaluation is carried out 3 weeks after application, using a scale of nine ratings (1=total damage, 9=no action). Ratings of from 1 to 4 (especially from 1 to 3) indicate good to very good herbicidal action. Test plants: Alopecurus (Alo), Avena (Ave), Lolium (Lol), Setaria (Set), Panicum (Pan), Sorghum (Sor), Digitaria (Dig), Echinochloa (Ech) and Brachiaria (Bra).

[5] = system: Avena (Ave); test: as above; set-up: key: 1=total damage; 9=no action; conditions: 500 g of active ingredient/ha; 3 weeks after application; scale of nine ratings, 1 to 4 = good to very good action
Procedure: as §2

[6] = system: Sorghum (Sor); test: as above; set-up: key: 1=total damage; 9=no action; conditions: 500 g of active ingredient/ha; 3 weeks after application; scale of nine ratings, 1 to 4 = good to very good action
Procedure: as §2

[7] = system: Setaria (Set); test: as above; set-up: key: 1=total damage; 9=no action; conditions: 500 g of active ingredient/ha; 3 weeks after application; scale of nine ratings, 1 to 4 = good to very good action
Procedure: as §2

[8] = system: Echinochloa (Ech); test: as above; set-up: key: 1=total damage; 9=no action; conditions: 500 g of active ingredient/ha; 3 weeks after application; scale of nine ratings, 1 to 4 = good to very good action
Procedure: as §2

[9] = system: Lolium (Lol); test: as above; set-up: key: 1=total damage; 9=no action; conditions: 500 g of active ingredient/ha; 3 weeks after application; scale of nine ratings, 1 to 4 = good to very good action
Procedure: as §2

[10] = system: Brachiaria (Bra); test: as above; set-up: key: 1=total damage; 9=no action; conditions: 500 g of active ingredient/ha; 3 weeks after application; scale of nine ratings, 1 to 4 = good to very good action
Procedure: as §2

[11] = system: Panicum (Pan); test: as above; set-up: key: 1=total damage; 9=no action; conditions: 500 g of active ingredient/ha; 3 weeks after application; scale of nine ratings, 1 to 4 = good to very good action
Procedure: as §2

[12] = system: Digitaria (Dig); test: as above; conditions: 500 g of active ingredient/ha; 3 weeks after application; scale of nine ratings, 1 to 4 = good to very good action
Procedure: as §2

[13] = system: Avena (Ave); test: Example B3 pre-emergence herbicidal action, MERGE oil additive 0.7% (Table B3); set-up: key: 1=total damage; 9=no action; conditions: 500 g of active substance/ha; MERGE oil additive 0.7% by weight of the spray mixture; evaluation 3 weeks after application; scale of nine ratings
Procedure: (§3) Monocotyledonous and dicotyledonous weeds are sown in standard soil in plastics pots. Immediately after sowing, the test substances are applied in the form of an aqueous suspension (prepared from a 25% wettable powder (Example F3, b)) or in the form of an emulsion (prepared from a 25% emulsifiable concentrate (Example F1, c)) (500 liters of water/ha). The rate of application is 500 g of active substance/ha. The test plants are then grown in the greenhouse under optimum conditions. The evaluation is carried out 3 weeks after application, sing a scale of nine ratings (1=total damage, 9=no action). Ratings of from 1 to 4 (especially from 1 to 3) indicate good to very good herbicidal action. Test plants: Avena (Ave), Lolium (Lol), Setaria (Set).

[14] = system: Setaria (Set); test: as above; set-up: key: 1=total damage; 9=no action; conditions: 500 g of active substance/ha; MERGE oil additive 0.7% by weight of the spray mixture; evaluation 3 weeks after application; scale of nine ratings
Procedure: as §3

[15] = system: Lolium (Lol); test: as above; set-up: key: 1=total damage; 9=no action; conditions: 500 g of active substance/ha; MERGE oil additive 0.7% by weight of the spray mixture; evaluation 3 weeks after application; scale of nine ratings
Procedure: as §3

[16] = system: Digitaria (Dig); test: Example B2 post-emergence herbicidal action (comparison test); conditions: 250 g of active ingredient/ha; 3- to 6-leaf stage; 3 weeks after application; scale of nine ratings, 1 to 4 = good to very good action
Procedure: (§4) Monocotyledonous and dicotyledonous weeds are grown in standard soil in plastics pots under greenhouse conditions. The test substances are applied to the test plants at the 3- to 6-leaf stage. […] suspension (prepared from a 25% wettable powder (Example F3, b)) or in the form of an emulsion (prepared from a 25% emulsifiable concentrate (Example F1, c)) (500 liters of water/ha). The evaluation is carried out 3 weeks after application, using a scale of nine ratings (1=total damage, 9=no action). Ratings of from 1 to 4 (especially from 1 to 3) indicate good to very good herbicidal action. Test plants: Alopecurus (Alo), Avena (Ave), Lolium (Lol), Setaria (Set), Panicum (Pan), Sorghum (Sor), Digitaria (Dig), Echinocloa (Ech) and Brachiaria (Bra).

[17] = system: Alopecurus (Alo); test: as above; set-up: key: 1=total damage; 9=no action; conditions: 250 g of active ingredient/ha; 3- to 6-leaf stage; 3 weeks after application; scale of nine ratings, 1 to 4 = good to very good action
Procedure: as §4

[18] = system: Avena (Ave); test: as above; set-up: key: 1=total damage; 9=no action; conditions: 250 g of active ingredient/ha; 3- to 6-leaf stage; 3 weeks after application; scale of nine ratings, 1 to 4 = good to very good action
Procedure: as §4

[19] = system: Sorghum (Sor); test: as above; set-up: key: 1=total damage; 9=no action; conditions: 250 g of active ingredient/ha; 3- to 6-leaf stage; 3 weeks after application; scale of nine ratings, 1 to 4 = good to very good action
Procedure: as §4

[20] = system: Setaria (Set); test: as above; set-up: key: 1=total damage; 9=no action; conditions: 250 g of active ingredient/ha; 3- to 6-leaf stage; 3 weeks after application; scale of nine ratings, 1 to 4 = good to very good action
Procedure: as §4

[21] = system: Lolium (Lol); test: as above; set-up: key: 1=total damage; 9=no action; conditions: 250 g of active ingredient/ha; 3- to 6-leaf stage; 3 weeks after application; scale of nine ratings, 1 to 4 = good to very good action
Procedure: as §4

[22] = system: Brachiaria (Bra); test: as above; set-up: key: 1=total damage; 9=no action; conditions: 250 g of active ingredient/ha; 3- to 6-leaf stage; 3 weeks after application; scale of nine ratings, 1 to 4 = good to very good action
Procedure: as §4

[23] = system: Panicum (Pan); test: as above; set-up: key: 1=total damage; 9=no action; conditions: 250 g of active ingredient/ha; 3- to 6-leaf stage; 3 weeks after application; scale of nine ratings, 1 to 4 = good to very good action
Procedure: as §4

[24] = system: Echinocloa (Ech); test: as above; set-up: key: 1=total damage; 9=no action; conditions: 250 g of active ingredient/ha; 3- to 6-leaf stage; 3 weeks after application; scale of nine ratings, 1 to 4 = good to very good action
Procedure: as §4

SMILES: CCc1cc(C)cc(CC)c1-c1c(O)n2n(c1=O)CC(OC(C)C)CC2 (stereo not drawn) [1.14]
- Post-emergence action, rating, Ave [1]: 1
- Post-emergence action, rating, Set [2]: 2
- Post-emergence action, rating, Lol [3]: 2

SMILES: CCc1cc(C)cc(CC)c1-c1c(O)n2n(c1=O)CC(O)C(O)C2 (stereo not drawn) [1.39]
- Post-emergence action, rating, Ave [1]: 1
- Post-emergence action, rating, Set [2]: 1
- Post-emergence action, rating, Lol [3]: 1

SMILES: CCc1cc(C)cc(CC)c1-c1c(OC(=O)C(C)(C)C)n2n(c1=O)CC(O)C(O)C2 (stereo not drawn) [1.40]
- Post-emergence action, rating, Ave [1]: 1
- Post-emergence action, rating, Set [2]: 2
- Post-emergence action, rating, Lol [3]: 1

SMILES: CCc1cc(C)cc(CC)c1-c1c(OC(=O)C(C)(C)C)n2n(c1=O)CCC(F)(F)CC2 [1.43]
- Post-emergence action, rating, Ave [1]: 1
- Post-emergence action, rating, Set [2]: 2
- Post-emergence action, rating, Lol [3]: 2

SMILES: CCc1cc(C)cc(CC)c1-c1c(OC(=O)C(C)(C)C)n2n(c1=O)CCCC2 [1.02]
- Pre-emergence action rating, Alo [4]: 1
- Pre-emergence action, rating, Ave [5]: 1
- Pre-emergence action rating, Sor [6]: 1
- Pre-emergence action, rating, Set [7]: 1
- Pre-emergence action rating, Ech [8]: 1
- Pre-emergence action, rating, Lol [9]: 1
- Pre-emergence action rating, Bra [10]: 1
- Pre-emergence action rating, Pan [11]: 1
- Post-emergence action, rating, Ave [1]: 1
- Post-emergence action, rating, Set [2]: 1
- Post-emergence action, rating, Lol [3]: 1
- Pre-emergence action rating, Dig [12]: 4
- Pre-emergence action, rating, Ave [13]: 1
- Pre-emergence action, rating, Set [14]: 1
- Pre-emergence action, rating, Lol [15]: 1
- Post-emergence action rating, Dig [16]: 2
- Post-emergence action rating, Alo [17]: 1
- Post-emergence action, rating, Ave [18]: 1
- Post-emergence action rating, Sor [19]: 1
- Post-emergence action, rating, Set [20]: 1
- Post-emergence action, rating, Lol [21]: 1
- Post-emergence action rating, Bra [22]: 1
- Post-emergence action rating, Pan [23]: 1
- Post-emergence action rating, Ech [24]: 1

SMILES: CCc1cc(C)cc(CC)c1-c1c(O)n2n(c1=O)CC(O)C(Cl)C2 (stereo not drawn) [1.10]
- Post-emergence action, rating, Ave [1]: 1
- Post-emergence action, rating, Set [2]: 1
- Post-emergence action, rating, Lol [3]: 1

SMILES: CCc1cc(C)cc(CC)c1-c1c(O)n2n(c1=O)CC(OCC(=O)O)CC2 (stereo not drawn) [1.19]
- Post-emergence action, rating, Ave [1]: 1
- Post-emergence action, rating, Set [2]: 1
- Post-emergence action, rating, Lol [3]: 1

SMILES: CCc1cc(C)cc(CC)c1-c1c(O)n2n(c1=O)CC(=NOC)CC2 [1.30]
- Post-emergence action, rating, Ave [1]: 1
- Post-emergence action, rating, Set [2]: 1
- Post-emergence action, rating, Lol [3]: 1

SMILES: CCc1cc(C)cc(CC)c1-c1c(O)n2n(c1=O)CC1OC3(CCCCC3)OC1C2 (stereo not drawn) [1.27]
- Post-emergence action, rating, Ave [1]: 1
- Post-emergence action, rating, Set [2]: 2
- Post-emergence action, rating, Lol [3]: 1
